Measured values as given in PMC7170309, “Imidazopyridine-fused [1,3]diazepinones: modulations of positions 2 to 4 and their impacts on the anti-melanoma activity” (Journal of Enzyme Inhibition and Medicinal Chemistry, 2020).

What was measured:
[1] = tested on: NCI-60 cancer cell line panel; assay: NCI-60 SRB assay, whole panel; assay type: cell-based, human; conditions: 10 µM, 48 h
Description: (§1) Primary anticancer assay was performed on a panel of 60 human cancer cell lines derived from nine neoplastic diseases, in accordance with the protocol of the Drug Evaluation Branch, National Cancer Institute, Bethesda, Maryland, USA[22]. Cells were incubated with tested compounds at 10 µM for 48 h. The growth percentage was evaluated spectrophotometrically using a protein binding dye, SRB. Results for each tested compound were reported as the percent of growth of treated cells when compared to untreated control cells.
(§2) To better compare the activity profile of these two series of compounds, compounds 5 and 8 were selected and then evaluated towards a panel of sixty cancer cell lines corresponding to nine different cancer types, i.e. leukaemia, melanoma, as well as lung, colon, central nervous system, ovarian, renal, prostate and breast cancers (NCI evaluation). Indeed, it is now well established that the growth inhibitory patterns of anticancer drugs against the NCI-60 cell line panel correlated well with their modes of action. For example, compounds that bind to tubulin have similar growth inhibition patterns regardless of which site on tubulin they bind[30]. […] Compounds were tested using the sulforhodamine B (SRB) assay that provides a direct cell density index. The amount of dye incorporated by the cells increases with the increase of the total protein biomass. Cells were incubated for 48 h with compounds at 10 µM concentration, then cell growth was evaluated spectrophotometrically and presented as the percent of untreated control cells. Values of the most sensitive cell lines were compared to those obtained with JMV5038 (Figure 4, for all data see SI).

NCI-H322M = assay: NCI-60 SRB assay, NCI-H322M (NSCLC); assay type: cell-based, human; conditions: 10 µM, 48 h
Description: as §1, §2

NCI-H522 = assay: NCI-60 SRB assay, NCI-H522 (NSCLC); assay type: cell-based, human; conditions: 10 µM, 48 h
Description: as §1, §2

UACC-62 = assay: NCI-60 SRB assay, UACC-62 (Melanoma); assay type: cell-based, human; conditions: 10 µM, 48 h
Description: as §1, §2

A498 = assay: NCI-60 SRB assay, A498 (Renal Cancer); assay type: cell-based, human; conditions: 10 µM, 48 h
Description: as §1, §2

MDA-MB-435 cells = assay: Immunofluorescent staining for actin localisation (confocal microscopy); assay type: cell-based, human; conditions: 5 µM, 20 h
Description: To evaluate the effect of compound treatment on cell morphology and stress actin fibres, an immunofluorescence imaging of cells was performed as previously described. MDA-MB-435 cells were seeded on cover slips in petri dishes and allowed to grow for 24 h. After cell growth, cells were treated with the vehicule (control cells) or with JMV5038, compound 5 or 8 at 5 µM for 20 h. Then cells were fixed using Antigenfix for 20 min and permeabilized using 0.2% Triton X-100 for 4 min at room temperature. Actin was stained using a primary human anti-actin antibody (made from mouse) and a secondary Alexa Fluor 568-conjugated goat anti-mouse antibody. Both of them were incubated 1 h at room temperature. Nuclei were counter-stained using Hoechst 33342. Representative images were obtained using a Zeiss LSM 780 inverted confocal microscopy. Confocal fluorescence microscopy was performed on fixed cells under a 543 nm wavelength excitation for AlexaFluor568, and 405 nm for nuclei, and visualised at 620 nm (red) and 450 nm (blue) respectively.
In our previous study, we reported that JMV5038 led to changes in the cell morphology, concomitant with a disruption of the actin network. Morphological changes in MDA-MB-435 cells induced by compounds 5 or 8 were investigated and compared to those induced by JMV5038. For this purpose, fixed and actin immunostained MDA-MB-435 cells were imaged by confocal microscopy (Figure 6). Control cells treated with DMSO (20 h, 5 µM concentration) were spread and the tensile forces of actin stress fibres stretched the cell-adhesive phenotype.

EKVX = assay: NCI-60 SRB assay, EKVX (NSCLC); assay type: cell-based, human; conditions: 10 µM, 48 h
Description: as §1, §2

PC-3 = assay: NCI-60 SRB assay, PC-3 (Prostate Cancer); assay type: cell-based, human; conditions: 10 µM, 48 h
Description: as §1, §2

SN12C = assay: NCI-60 SRB assay, SN12C (Renal Cancer); assay type: cell-based, human; conditions: 10 µM, 48 h
Description: as §1, §2

UACC-257 = assay: NCI-60 SRB assay, UACC-257 (Melanoma); assay type: cell-based, human; conditions: 10 µM, 48 h
Description: as §1, §2

BT-549 = assay: NCI-60 SRB assay, BT-549 (Breast Cancer); assay type: cell-based, human; conditions: 10 µM, 48 h
Description: as §1, §2

U251 = assay: NCI-60 SRB assay, U251 (CNS Cancer); assay type: cell-based, human; conditions: 10 µM, 48 h
Description: as §1, §2

HCC-2998 = assay: NCI-60 SRB assay, HCC-2998 (Colon Cancer); assay type: cell-based, human; conditions: 10 µM, 48 h;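 for Mean G% - G%: mean growth across the NCI-60 panel minus this line's growth with positive meaning more sensitive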
Description: as §1, §2

ACHN = assay: NCI-60 SRB assay, ACHN (Renal Cancer); assay type: cell-based, human; conditions: 10 µM, 48 h
Description: as §1, §2

OVCAR-5 = assay: NCI-60 SRB assay, OVCAR-5 (Ovarian Cancer); assay type: cell-based, human; conditions: 10 µM, 48 h;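 for Mean G% - G%: mean growth across the NCI-60 panel minus this line's growth with positive meaning more sensitive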
Description: as §1, §2

786-0 = assay: NCI-60 SRB assay, 786-0 (Renal Cancer); assay type: cell-based, human; conditions: 10 µM, 48 h
Description: as §1, §2

CCRF-CEM = assay: NCI-60 SRB assay, CCRF-CEM (Leukemia); assay type: cell-based, human; conditions: 10 µM, 48 h
Description: as §1, §2

SNB-75 = assay: NCI-60 SRB assay, SNB-75 (CNS Cancer); assay type: cell-based, human; conditions: 10 µM, 48 h
Description: as §1, §2

HOP-92 = assay: NCI-60 SRB assay, HOP-92 (NSCLC); assay type: cell-based, human; conditions: 10 µM, 48 h;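 for Mean G% - G%: mean growth across the NCI-60 panel minus this line's growth with positive meaning more sensitive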
Description: as §1, §2

SK-MEL-2 = assay: NCI-60 SRB assay, SK-MEL-2 (Melanoma); assay type: cell-based, human; conditions: 10 µM, 48 h
Description: as §1, §2

HCT-15 = assay: NCI-60 SRB assay, HCT-15 (Colon Cancer); assay type: cell-based, human; conditions: 10 µM, 48 h
Description: as §1, §2

RXF 393 = assay: NCI-60 SRB assay, RXF 393 (Renal Cancer); assay type: cell-based, human; conditions: 10 µM, 48 h
Description: as §1, §2

SF-268 = assay: NCI-60 SRB assay, SF-268 (CNS Cancer); assay type: cell-based, human; conditions: 10 µM, 48 h
Description: as §1, §2

SW-620 = assay: NCI-60 SRB assay, SW-620 (Colon Cancer); assay type: cell-based, human; conditions: 10 µM, 48 h
Description: as §1, §2

OVCAR-3 = assay: NCI-60 SRB assay, OVCAR-3 (Ovarian Cancer); assay type: cell-based, human; conditions: 10 µM, 48 h;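 for Mean G% - G%: mean growth across the NCI-60 panel minus this line's growth with positive meaning more sensitive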
Description: as §1, §2

SNB-19 = assay: NCI-60 SRB assay, SNB-19 (CNS Cancer); assay type: cell-based, human; conditions: 10 µM, 48 h
Description: as §1, §2

M14 = assay: NCI-60 SRB assay, M14 (Melanoma); assay type: cell-based, human; conditions: 10 µM, 48 h
Description: as §1, §2

C[C@@H]1NC(c2ccc(N=[N+]=[N-])cc2)=Nc2nc3ccccn3c2C1=O [Compound 5, (4S)-4-methyl-2-(4-azidophenyl)-3,4-dihydro-5H-pyrido[1’,2’:1,2]imidazo[4,5-d][1,3]diazepin-5-one]
Mean G% (mean growth over the panel) [1]: 85,26% | Mean G% - G% (NCI-H322M): -10,63% | G% (NCI-H322M; growth vs untreated control): 95,89% | melting point: 235 to 236 °C (dec.) | Mean G% - G% (NCI-H522): 13,32% | G% (NCI-H522; growth vs untreated control): 71,94% | Mean G% - G% (UACC-62): 17,97% | G% (UACC-62; growth vs untreated control): 67,29% | Mean G% - G% (A498): -14,16% | G% (A498; growth vs untreated control): 99,42% | morphological changes / actin network (MDA-MB-435 cells): disorganisation of the actin cytoskeleton | Mean G% - G% (EKVX): 3,45% | G% (EKVX; growth vs untreated control): 81,81% | Mean G% - G% (PC-3): -10,97% | G% (PC-3; growth vs untreated control): 96,23% | Mean G% - G% (SN12C): -18,28% | G% (SN12C; growth vs untreated control): 103,54% | Mean G% - G% (UACC-257): -15,59% | G% (UACC-257; growth vs untreated control): 100,85% | Mean G% - G% (BT-549): -10,11% | G% (BT-549; growth vs untreated control): 95,37% | Mean G% - G% (U251): -13,85% | G% (U251; growth vs untreated control): 99,11% | Mean G% - G% (HCC-2998): 3,82% | G% (HCC-2998; growth vs untreated control): 81,44% | Mean G% - G% (ACHN): 0,49% | G% (ACHN; growth vs untreated control): 84,77% | Mean G% - G% (OVCAR-5): -22,84% | G% (OVCAR-5; growth vs untreated control): 108,10% | Mean G% - G% (786-0): -9,88% | G% (786-0; growth vs untreated control): 95,14% | Mean G% - G% (CCRF-CEM): -12,13% | G% (CCRF-CEM; growth vs untreated control): 97,39% | Mean G% - G% (SNB-75): 14,91% | G% (SNB-75; growth vs untreated control): 70,35% | Mean G% - G% (HOP-92): -17,00% | G% (HOP-92; growth vs untreated control): 102,26% | Mean G% - G% (SK-MEL-2): -9,12% | G% (SK-MEL-2; growth vs untreated control): 94,38% | Mean G% - G% (HCT-15): 16,87% | G% (HCT-15; growth vs untreated control): 68,39% | Mean G% - G% (RXF 393): -1,17% | G% (RXF 393; growth vs untreated control): 86,43% | Mean G% - G% (SF-268): -12,35% | G% (SF-268; growth vs untreated control): 97,61% | Mean G% - G% (SW-620): 13,36% | G% (SW-620; growth vs untreated control): 71,90% | Mean G% - G% (OVCAR-3): -12,28% | G% (OVCAR-3; growth vs untreated control): 97,54% | Mean G% - G% (SNB-19): -4,44% | G% (SNB-19; growth vs untreated control): 89,70% | Mean G% - G% (M14): 3,28% | G% (M14; growth vs untreated control): 81,98%
